For this assay, the target named is T1, dopa oxidase activity (tyrosinase) of human neonatal foreskin-derived melanocytes (Homo sapiens, UniProt P14679).
T1 construct: The cells were lysed for 3 hours at 4° C., and the dopa oxidase activity was measured; endogenous in cells; host or cells: human neonatal foreskin-derived melanocytes (primary), lysed with NP-40/SDS extraction buffer
T1 sequence (P14679 19-529): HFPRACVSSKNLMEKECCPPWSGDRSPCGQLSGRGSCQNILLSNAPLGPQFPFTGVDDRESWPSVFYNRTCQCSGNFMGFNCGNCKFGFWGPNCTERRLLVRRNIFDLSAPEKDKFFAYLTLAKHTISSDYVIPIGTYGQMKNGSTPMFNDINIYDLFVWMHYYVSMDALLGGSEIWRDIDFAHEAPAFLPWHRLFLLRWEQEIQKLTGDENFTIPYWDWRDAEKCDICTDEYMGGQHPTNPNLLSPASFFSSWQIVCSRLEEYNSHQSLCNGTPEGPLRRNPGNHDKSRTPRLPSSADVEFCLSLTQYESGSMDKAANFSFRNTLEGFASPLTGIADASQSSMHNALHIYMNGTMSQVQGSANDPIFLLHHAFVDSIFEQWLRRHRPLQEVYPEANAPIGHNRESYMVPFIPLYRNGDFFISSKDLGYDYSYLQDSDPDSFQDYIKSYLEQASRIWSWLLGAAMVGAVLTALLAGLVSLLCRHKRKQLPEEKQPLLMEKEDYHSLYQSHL
Description: Measurement of dopa oxidase activity (MBTH method) in lysate of treated melanocytes. The settings on record: read-out: Dopa oxidase activity (%). The assay is classed as cell-based.
Description: 100 μL of human neonatal foreskin-derived melanocytes were inoculated on each well of a 96-well plate to be a cell density of 1×10^4 cells/well. The medium used therein was Medium 254 to which HMGS (Human Melanocyte Growth Supplement) excluding PMA (all manufactured by Cascade Biologics Inc.) was added.
After culturing the cells for 24 hours, endothelin-1 (ET-1) which is a melanocyte activator, stem cell growth factor (SCF), α-melanocyte stimulating hormone (α-MSH), histamine and prostaglandin E2 (PGE2) were mixed and added to the each culture at a final concentration in medium of 10×10^−7 mol/m^3 in each. […]
The melanocytes which had been used in the measurement of the cell proliferation activity were washed with Phosphate-buffered saline (PBS) from which Ca^2+ and Mg^2+ had been eliminated, and 20 μL/well of an extraction buffer (0.1 M Tris-HCl (pH 7.2), 1% Nonidet P-40, 0.01% SDS, 100 μM phenylmethylsulfonyl fluoride (PMSF) and 1 μg/ml aprotinin) and 20 μL/well of an assay buffer (100 mM Sodium phosphate-buffer (pH 7.1) containing 4% dimethylformamide) were added to the cells. The cells were lysed for 3 hours at 4° C., and its dopa oxidase activity was measured. […]
Further, the values of the dopa oxidase activity are indicated as values relative to the absorbances of the instances where various plant extracts were not added. […]

In the case of `CC(=O)O[C@@H]1C[C@H](O)[C@@]23CO[C@@H](O)[C@]1(C)[C@@H]2C[C@@H](O)[C@]1(C)[C@@H]3C(=O)[C@H](OC(C)=O)[C@@]2(C)[C@H](c3ccoc3)C[C@H]3O[C@]321` [Toosendanin], the activity at 0.1 µM is 15%.

These data come from US20110117038A1, “Dopa Oxidase Inhibitor, Skin-Lightening Agent and External Preparation for Skin” (Kao Corporation, priority 2009, published 2011).
